Assay [1] concerns the target T1, human DLK (Homo sapiens, UniProt Q12852).
T1 sequence (Q12852 1-859): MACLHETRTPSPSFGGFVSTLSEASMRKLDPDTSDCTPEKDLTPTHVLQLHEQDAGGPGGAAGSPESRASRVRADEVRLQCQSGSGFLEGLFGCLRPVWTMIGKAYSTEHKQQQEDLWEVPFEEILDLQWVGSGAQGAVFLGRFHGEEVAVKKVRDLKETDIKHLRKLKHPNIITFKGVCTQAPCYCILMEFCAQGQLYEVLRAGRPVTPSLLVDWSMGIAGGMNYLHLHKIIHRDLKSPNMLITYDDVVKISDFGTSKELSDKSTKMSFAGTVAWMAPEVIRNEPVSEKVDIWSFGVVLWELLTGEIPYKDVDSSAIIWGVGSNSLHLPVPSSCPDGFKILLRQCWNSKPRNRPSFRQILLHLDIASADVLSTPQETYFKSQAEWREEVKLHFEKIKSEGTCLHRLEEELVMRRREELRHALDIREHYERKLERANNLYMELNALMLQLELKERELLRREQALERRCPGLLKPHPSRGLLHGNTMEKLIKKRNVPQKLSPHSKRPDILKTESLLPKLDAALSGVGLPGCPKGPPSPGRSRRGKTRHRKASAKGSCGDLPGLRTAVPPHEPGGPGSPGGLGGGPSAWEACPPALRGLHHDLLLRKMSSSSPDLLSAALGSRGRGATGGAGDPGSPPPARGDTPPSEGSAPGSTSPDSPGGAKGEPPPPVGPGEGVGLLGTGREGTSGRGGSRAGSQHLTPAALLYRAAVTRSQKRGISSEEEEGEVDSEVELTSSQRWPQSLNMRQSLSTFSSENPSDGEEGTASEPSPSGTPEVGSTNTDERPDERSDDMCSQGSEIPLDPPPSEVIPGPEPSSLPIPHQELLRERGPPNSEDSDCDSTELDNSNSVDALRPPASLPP
The assay can be described thus: Phospho-cJun Cellular Assay. As to conditions: HEK293 cells stably transfected with Dox-inducible human DLK; p-cJun (Ser63); 5 h compound incubation. Also on record: expressed in transfected cells. The assay is classed as cell-based. The protocol:
Phospho-cJun Cellular Assay
HEK293 cells stably transfected with a Dox-inducible human DLK were plated into a 384-well plate in 20 μl (40,000 cells/well) of DMEM medium (without phenol red) containing 10% fetal bovine serum, 1.5 μg/ml doxycycline and 1 μg/ml puromycin. The cells as negative control were grown in the absence of doxycycline. The plate was incubated at 37° C., 5% CO2 for 20 h, before DMSO (control) or compounds diluted in medium were added. The cells were incubated at 37° C. for an additional 5 h, followed by lysis and the addition detection antibodies from p-cJun (Ser63) cellular assay kit (Cisbio) per manufacturer protocol. The standard dose response curves were fitted by Genedata Screener software using the variable-slope model: Signal=Signalnegative control+(SignalDMSO control−Signalnegative control)/(1+(IC50/Dose)̂Hill slope). Only signal and dose in the equation were treated as known values.

Assay [2] deals with T1, human DLK. The assay can be described thus: DLK Kd Determinations (KINOMEscan KdELECT, DiscoveRx). As to conditions: fusion protein of full length human DLK (amino acids 1-859) and NFkB DNA binding domain; qPCR readout; duplicate. On the set-up: full length of human DLK (amino acids 1-859); host or cells: transiently transfected HEK293 cells; unpurified extract. An outline of the steps:
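Kd values were fitted by Hill equation (slope −1) from duplicate 11-point 3-fold dilutions starting at 30,000 nM. Bead-immobilized ligand competed with compound for DNA-tagged full-length human DLK fusion in HEK293 extract (final DMSO 0.9%, 1 h, room temperature), with qPCR readout of bound kinase.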
(In general: Quantitative PCR measures a nucleic acid by following its amplification.)

Molecule `COCCN1C[C@@H]2[C@H](C1)[C@H]2n1cc(-c2cnc(N)c(OC(F)(F)F)c2)nc1C1CC1` [Example 68, 5-(2-cyclopropyl-1-((1R,5S,6s)-3-(2-methoxyethyl)-3-azabicyclo[3.1.0]hexan-6-yl)-1H-imidazol-4-yl)-3-(trifluoromethoxy)pyridin-2-amine] registered a half-inhibitory concentration (IC50) in assay [1] of 745 nM. In assay [2], this molecule displayed a Kd of 77 nM.

Consider `CC(C)c1nc(-c2cnc(N)c(OC(F)(F)F)c2)cn1[C@H]1[C@@H]2CC(N3CCN(C)CC3)C[C@@H]21` (single isomer, unassigned) [Example 133a, 5-(2-isopropyl-1-(3-(4-methylpiperazin-1-yl)bicyclo[3.1.0]hexan-6-yl)-1H-imidazol-4-yl)-3-(trifluoromethoxy)pyridin-2-amine], for which the IC50 in assay [1] was determined as 896 nM. Also, the dissociation constant Kd in assay [2] came out at 20 nM.

With `CCCc1nc(-c2cnc(N)c(C(F)(F)F)c2)cn1[C@H]1[C@@H]2CN(CCF)C[C@@H]21` [Example 84, 5-(1-((1R,5S,6s)-3-(2-fluoroethyl)-3-azabicyclo[3.1.0]hexan-6-yl)-2-propyl-1H-imidazol-4-yl)-3-(trifluoromethyl)pyridin-2-amine], inhibition in assay [1] was half-maximal at 1610 nM (IC50). The Kd in assay [2] turned out to be 160 nM.

Molecule `CN1CCN(C2C[C@@H]3[C@H](C2)[C@H]3n2cc(-c3cnc(N)c(C(F)(F)F)c3)nc2C2CC2)CC1` (single isomer, unassigned) [Example 129a, 5-(2-cyclopropyl-1-(3-(4-methylpiperazin-1-yl)bicyclo[3.1.0]hexan-6-yl)-1H-imidazol-4-yl)-3-(trifluoromethyl)pyridin-2-amine] yielded a 50% inhibitory concentration (IC50) in assay [1] of 503 nM. Besides, the dissociation constant Kd in assay [2] was determined as 12.8 nM.

In turn, `CC(=O)N1C[C@@H]2[C@H](C1)[C@H]2n1cc(-c2cnc(N)c(C(F)(F)F)c2)nc1C1CC1` [Example 72, 1-((1R,5S,6s)-6-(4-(6-amino-5-(trifluoromethyl)pyridin-3-yl)-2-cyclopropyl-1H-imidazol-1-yl)-3-azabicyclo[3.1.0]hexan-3-yl)ethan-1-one] displayed an IC50 in assay [1] of 2690 nM. In assay [2], this molecule yielded a dissociation constant Kd of 69 nM.

`CC(C)c1nc(-c2cnc(N)c(C(F)(F)F)c2)cn1[C@H]1[C@@H]2CC(N3CCOC[C@@H]3C)C[C@@H]21` (stereo partly drawn) [Example 131, 5-(2-isopropyl-1-(3-((S)-3-methylmorpholino)bicyclo[3.1.0]hexan-6-yl)-1H-imidazol-4-yl)-3-(trifluoromethyl)pyridin-2-amine]: the midpoint of inhibition in assay [1], the IC50, lay at 1390 nM. In assay [2], this molecule gave a Kd of 34 nM.

Take `Nc1ncc(-c2cn([C@H]3[C@@H]4CN(C5CCOCC5)C[C@@H]43)c(CC3CC3)n2)cc1C(F)(F)F` [Example 76, 5-(2-(cyclopropylmethyl)-1-((1R,5S,6s)-3-(tetrahydro-2H-pyran-4-yl)-3-azabicyclo[3.1.0]hexan-6-yl)-1H-imidazol-4-yl)-3-(trifluoromethyl)pyridin-2-amine]: half-maximal inhibition in assay [1] (IC50) was put at 760 nM. In assay [2], the dissociation constant Kd stood at 51 nM.

Turning to `CC(C)c1nc(-c2cnc(N)c(OC(F)(F)F)c2)cn1[C@H]1[C@@H]2CC(N3CCOCC3)C[C@@H]21` (single isomer, unassigned) [Example 19a], the IC50 in assay [1] was 666 nM. In assay [2], this molecule had a Kd of 76 nM.

In assay [1], `Nc1ncc(-c2cn([C@H]3[C@@H]4CC(N5CCN(CCF)CC5)C[C@@H]43)c(CC3CC3)n2)cc1C(F)(F)F` (single isomer, unassigned) [Example 162a, 5-(2-(cyclopropylmethyl)-1-(3-(4-(2-fluoroethyl)piperazin-1-yl)bicyclo[3.1.0]hexan-6-yl)-1H-imidazol-4-yl)-3-(trifluoromethyl)pyridin-2-amine] had an IC50 of 1040 nM.

The molecule `CN1CCN(C2C[C@@H]3[C@H](C2)[C@H]3n2cc(-c3cnc(N)c(C(F)(F)F)c3)nc2CC2CC2)CC1` (single isomer, unassigned) [Example 161b, 5-(2-(cyclopropylmethyl)-1-(3-(4-methylpiperazin-1-yl)bicyclo[3.1.0]hexan-6-yl)-1H-imidazol-4-yl)-3-(trifluoromethyl)pyridin-2-amine] yielded an IC50 in assay [1] of 629 nM.

`CC(C)c1nc(-c2cnc(N)c(C(F)(F)F)c2)cn1[C@H]1C[C@@H](N2CCOCC2)C1` [Example 44, 5-(2-isopropyl-1-((1s,3s)-3-morpholinocyclobutyl)-1H-imidazol-4-yl)-3-(trifluoromethyl)pyridin-2-amine] gave a half-inhibitory concentration (IC50) in assay [1] of 7690 nM.

`CC(C)c1nc(-c2cnc(N)c(C(F)(F)F)c2)cn1[C@H]1[C@@H]2CN(C3CCOCC3)C[C@@H]21` [Example 13, 5-(2-isopropyl-1-((1R,5S,6s)-3-(tetrahydro-2H-pyran-4-yl)-3-azabicyclo[3.1.0]hexan-6-yl)-1H-imidazol-4-yl)-3-(trifluoromethyl)pyridin-2-amine] yielded an equilibrium dissociation constant (Kd) in assay [2] of 78 nM.

For `CC(C)c1nc(-c2cnc(N)c(C(F)(F)F)c2)cn1[C@H]1[C@@H]2CNC[C@@H]21` [Example 11, 5-(1-(3-azabicyclo[3.1.0]hexan-6-yl)-2-isopropyl-1H-imidazol-4-yl)-3-(trifluoromethyl)pyridin-2-amine], the Kd in assay [2] turned out to be 120 nM.

In assay [2], `Nc1ncc(-c2cn([C@H]3[C@@H]4CN(CC(F)F)C[C@@H]43)c(C3CC3)n2)cc1OC(F)F` [Example 103, 5-(2-cyclopropyl-1-((1R,5S,6s)-3-(2,2-difluoroethyl)-3-azabicyclo[3.1.0]hexan-6-yl)-1H-imidazol-4-yl)-3-(difluoromethoxy)pyridin-2-amine] showed a dissociation constant Kd of 92 nM.

In assay [2], `Nc1ncc(-c2cn([C@H]3[C@@H]4CN(CC(F)(F)F)C[C@@H]43)c(C3CC3)n2)cc1OC(F)(F)F` [Example 70, 5-(2-cyclopropyl-1-((1R,5S,6s)-3-(2,2,2-trifluoroethyl)-3-azabicyclo[3.1.0]hexan-6-yl)-1H-imidazol-4-yl)-3-(trifluoromethoxy)pyridin-2-amine] registered a Kd of 510 nM.

`CC(C)c1nc(-c2cnc(N)c(OC(F)(F)F)c2)cn1[C@H]1[C@@H]2CN(CCF)C[C@@H]21` [Example 111, 5-(1-((1R,5S,6s)-3-(2-fluoroethyl)-3-azabicyclo[3.1.0]hexan-6-yl)-2-isopropyl-1H-imidazol-4-yl)-3-(trifluoromethoxy)pyridin-2-amine] yielded a dissociation constant (Kd) in assay [2] of 100 nM.

As for `Nc1ncc(-c2cn([C@H]3[C@@H]4CN(C5COC5)C[C@@H]43)c(CC3CC3)n2)cc1OC(F)F` [Example 87, 5-(2-(cyclopropylmethyl)-1-((1R,5S,6s)-3-(oxetan-3-yl)-3-azabicyclo[3.1.0]hexan-6-yl)-1H-imidazol-4-yl)-3-(difluoromethoxy)pyridin-2-amine], binding in assay [2] was characterised by a dissociation constant (Kd) of 110 nM.

In assay [2], `CC(C)c1nc(-c2cnc(N)c(C(F)(F)F)c2)cn1C1CCCC1` [Example 28, 5-(1-cyclopentyl-2-isopropyl-1H-imidazol-4-yl)-3-(trifluoromethyl)pyridin-2-amine] had a Kd of 220 nM.

Turning to `Nc1ncc(-c2cn([C@H]3[C@@H]4CN(C5COC5)C[C@@H]43)c(C3CCCC3)n2)cc1OC(F)F` [Example 64, 5-(2-cyclopentyl-1-((1R,5S,6s)-3-(oxetan-3-yl)-3-azabicyclo[3.1.0]hexan-6-yl)-1H-imidazol-4-yl)-3-(difluoromethoxy)pyridin-2-amine], the affinity in assay [2], expressed as Kd, was 120 nM.

`Nc1ncc(-c2cn([C@H]3[C@@H]4CN(CC(F)(F)F)C[C@@H]43)c(C3CC3)n2)cc1OC(F)F` [Example 108, 5-(2-cyclopropyl-1-((1R,5S,6s)-3-(2,2,2-trifluoroethyl)-3-azabicyclo[3.1.0]hexan-6-yl)-1H-imidazol-4-yl)-3-(difluoromethoxy)pyridin-2-amine]: in assay [2], the dissociation constant Kd is 140 nM.

The IC50 is the concentration at which inhibition is half-maximal. A lower IC50 goes with greater potency. Usually Kd stands for the free concentration of one partner at which half of the binding sites on the other are occupied at equilibrium, for simple one-to-one binding. Low values mean tighter binding, high ones weaker binding.

Source of the values: patent US20180057507A1, “INHIBITORS OF DUAL LEUCINE ZIPPER (DLK) KINASE FOR THE TREATMENT OF DISEASE” (Board of Regents, The University of Texas System, priority 2016, published 2018).
